Assay results: ChEMBL document CHEMBL3046407, “Toxicity of monoterpenes against larvae and adults of Colorado potato beetle, Leptinotarsa decemlineata Say (Coleoptera: Chrysomelidae)” (2007)

Columns and labels:
[1] = test system: Leptinotarsa decemlineata; test: Insecticidal activity against adult Leptinotarsa decemlineata infested potato leaves assessed as mortality at 20 mg after 12 hr relative to control; type: functional
[2] = test system: Leptinotarsa decemlineata; type: functional, Instar larval stage
[3] = test system: Leptinotarsa decemlineata; test: Insecticidal activity against adult Leptinotarsa decemlineata infested potato leaves assessed as mortality at 10 mg after 12 hr relative to control; type: functional
[4] = test system: Leptinotarsa decemlineata; test: Insecticidal activity against second-instar larval stage of Leptinotarsa decemlineata infested potato leaves assessed as mortality at 10 mg after 12 hr relative to control; type: functional
[5] = test system: Leptinotarsa decemlineata; test: Insecticidal activity against first-instar larval stage of Leptinotarsa decemlineata infested potato leaves assessed as mortality at 10 mg after 12 hr relative to control; type: functional
[6] = test system: Leptinotarsa decemlineata; type: functional, Instar larval stage; remark: listed apart in the source
[7] = test system: Leptinotarsa decemlineata; test: Insecticidal activity against adult Leptinotarsa decemlineata infested potato leaves assessed as mortality at 10 mg after 96 hr relative to control; type: functional
[8] = test system: Leptinotarsa decemlineata; test: Insecticidal activity against first-instar larval stage of Leptinotarsa decemlineata infested potato leaves assessed as mortality at 10 mg after 96 hr relative to control; type: functional
[9] = test system: Leptinotarsa decemlineata; test: Insecticidal activity against third-instar larval stage of Leptinotarsa decemlineata infested potato leaves assessed as mortality at 10 mg after 24 hr relative to control; type: functional
[10] = test system: Leptinotarsa decemlineata; test: Insecticidal activity against first-instar larval stage of Leptinotarsa decemlineata infested potato leaves assessed as mortality at 20 mg after 24 hr relative to control; type: functional
[11] = test system: Leptinotarsa decemlineata; test: Insecticidal activity against first-instar larval stage of Leptinotarsa decemlineata infested potato leaves assessed as mortality at 20 mg after 96 hr relative to control; type: functional
[12] = test system: Leptinotarsa decemlineata; test: Insecticidal activity against third-instar larval stage of Leptinotarsa decemlineata infested potato leaves assessed as mortality at 20 mg after 24 hr relative to control; type: functional
[13] = test system: Leptinotarsa decemlineata; test: Insecticidal activity against first-instar larval stage of Leptinotarsa decemlineata infested potato leaves assessed as mortality at 10 mg after 24 hr relative to control; type: functional
[14] = test system: Leptinotarsa decemlineata; type: functional, Instar larval stage; remark: listed apart in the source
[15] = test system: Leptinotarsa decemlineata; test: Insecticidal activity against first-instar larval stage of Leptinotarsa decemlineata infested potato leaves assessed as mortality at 20 mg after 48 hr relative to control; type: functional
[16] = test system: Leptinotarsa decemlineata; test: Insecticidal activity against adult Leptinotarsa decemlineata infested potato leaves assessed as mortality at 20 mg after 24 hr relative to control; type: functional
[17] = test system: Leptinotarsa decemlineata; type: functional, Instar larval stage; remark: listed apart in the source
[18] = test system: Leptinotarsa decemlineata; test: Insecticidal activity against adult Leptinotarsa decemlineata infested potato leaves assessed as mortality at 20 mg after 96 hr relative to control; type: functional
[19] = test system: Leptinotarsa decemlineata; test: Insecticidal activity against third-instar larval stage of Leptinotarsa decemlineata infested potato leaves assessed as mortality at 10 mg after 12 hr relative to control; type: functional
[20] = test system: Leptinotarsa decemlineata; test: Insecticidal activity against first-instar larval stage of Leptinotarsa decemlineata infested potato leaves assessed as mortality at 10 mg after 48 hr relative to control; type: functional
[21] = test system: Leptinotarsa decemlineata; type: functional, Instar larval stage; remark: listed apart in the source
[22] = test system: Leptinotarsa decemlineata; test: Insecticidal activity against first-instar larval stage of Leptinotarsa decemlineata infested potato leaves assessed as mortality at 20 mg after 12 hr relative to control; type: functional
[23] = test system: Leptinotarsa decemlineata; test: Insecticidal activity against adult Leptinotarsa decemlineata infested potato leaves assessed as mortality at 20 mg after 48 hr relative to control; type: functional
[24] = test system: Leptinotarsa decemlineata; type: functional, Instar larval stage; remark: listed apart in the source
[25] = test system: Leptinotarsa decemlineata; type: functional, Instar larval stage; remark: listed apart in the source
[26] = test system: Leptinotarsa decemlineata; test: Insecticidal activity against third-instar larval stage of Leptinotarsa decemlineata infested potato leaves assessed as mortality at 20 mg after 12 hr relative to control; type: functional
[27] = test system: Leptinotarsa decemlineata; test: Insecticidal activity against adult Leptinotarsa decemlineata infested potato leaves assessed as mortality at 10 mg after 48 hr relative to control; type: functional
[28] = test system: Leptinotarsa decemlineata; type: functional, Instar larval stage; remark: listed apart in the source
[29] = test system: Leptinotarsa decemlineata; test: Insecticidal activity against second-instar larval stage of Leptinotarsa decemlineata infested potato leaves assessed as mortality at 20 mg after 12 hr relative to control; type: functional
[30] = test system: Leptinotarsa decemlineata; type: functional, Instar larval stage; remark: listed apart in the source
[31] = test system: Leptinotarsa decemlineata; test: Insecticidal activity against adult Leptinotarsa decemlineata infested potato leaves assessed as mortality at 10 mg after 24 hr relative to control; type: functional
[32] = test system: Leptinotarsa decemlineata; type: functional, Instar larval stage; remark: listed apart in the source
Sitophilus granarius = test: Insecticidal activity against Sitophilus granarius (granary weevil) assessed as mortality; type: functional

| Compound | mortality [1] | mortality [2] | mortality [3] | mortality [4] | mortality [5] | mortality [6] | mortality [7] | mortality [8] | mortality [9] | mortality [10] | mortality [11] | mortality [12] | mortality [13] | mortality [14] | mortality [15] | mortality [16] | mortality [17] | mortality [18] | mortality [19] | mortality [20] | further results |
| --- | --- | --- | --- | --- | --- | --- | --- | --- | --- | --- | --- | --- | --- | --- | --- | --- | --- | --- | --- | --- | --- |
| CC12CCC(C1)C(C)(C)C2=O (configuration not stated) [FENCHONE] | 90% | 63.3% | 53.3% | 23.3% | 13.3% | 73.3% | 100% | 83.3% | 93.3% | 83.3% | 100% | 100% | 46.7% | 100% | 100% | 100% | 100% | 100% | 56.7% | 63.3% | mortality [21]: 50%; mortality [22]: 36.7%; mortality [23]: 100%; mortality [24]: 100%; mortality [25]: 100%; mortality [26]: 66.7%; mortality [27]: 100%; mortality [28]: 100%; mortality [29]: 33.3%; mortality [30]: 100%; mortality [31]: 100%; mortality [32]: 100% |
| CC(C)=C1CC[C@@H](C)CC1=O [PULEGONE] | – | – | – | – | – | – | – | – | – | – | – | – | – | – | – | – | – | – | – | – | mortality (Sitophilus granarius): 90% |
| CC1CCC(C(C)C)C(O)C1 (configuration not stated) [MENTHOL] | 0% | 26.7% | 3.3% | 3.3% | 0% | 46.7% | 30% | 36.7% | 23.3% | 16.7% | 36.7% | 33.3% | 3.3% | 23.3% | 30% | 0% | 40% | 33% | 20% | 16.7% | mortality [21]: 6.7%; mortality [22]: 0%; mortality [23]: 13.3%; mortality [24]: 20%; mortality [25]: 33.3%; mortality [26]: 26.7%; mortality [27]: 16.7%; mortality [28]: 40%; mortality [29]: 0%; mortality [30]: 40%; mortality [31]: 3.3%; mortality [32]: 26.7% |
| CC1(C)C2CCC1(C)C(O)C2 (configuration not stated) [BORNEOL] | 3.3% | 0% | 0% | 0% | 0% | 20% | 23.3% | 13.3% | 0% | 0% | 16.7% | 0% | 0% | 0% | 6.7% | 20% | 0% | 66.7% | 0% | 0% | mortality [21]: 0%; mortality [22]: 0%; mortality [23]: 66.7%; mortality [24]: 0%; mortality [25]: 16.7%; mortality [26]: 0%; mortality [27]: 13.3%; mortality [28]: 23.3%; mortality [29]: 0%; mortality [30]: 0%; mortality [31]: 0%; mortality [32]: 0% |
